From PubChem BioAssay AID2060623 (Molecular Pharmacology Branch, DTP, NCI, 2025)

System: 227483-062-R1-J1-PDC complex spheroids with HUVEC/MSC, viability
Test: Anticancer human tumor 227483-062-R1-J1-PDC patient-derived pancreatic carcinoma cell line growth inhibition [CLK]
Conditions: for IC50: curve of first compound; for viability, T/C: stronger effect = lower value
How it was run: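 Multi-cell-type spheroids combined patient-derived tumor cells with HUVEC endothelial cells and human mesenchymal stem cells. Paired agents were dosed in half-log steps down from about clinical Cmax, or from 10 microM where Cmax was unknown.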
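Note: spheroids exposed to compounds for seven days before readout.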
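Throughout, for viability, T/C: percent of DMSO vehicle control luminescence as 100% viability.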

Q: Which results are given for `CC(C)CC(NC(=O)C(Cc1ccccc1)NC(=O)c1cnccn1)B(O)O` (centres undefined) + CN1CCN(c2cc(C(=O)Nc3cc4cc(-c5cnn(C)c5)ccc4cn3)ccn2)CC1?
A: IC50 (second compound 0.0316 µM): 1.54 nM; IC50 (second compound 0.1 µM): 1.02 nM; IC50 (second compound 0.316 µM): < 0.949 nM; IC50 (second compound 1 µM): < 0.949 nM; IC50 (second compound 3.16 µM): < 0.949 nM; IC50 (second compound 10 µM): < 0.949 nM; viability, T/C (second compound 0.0316 µM, first compound 0.000949 µM): 84.2%; viability, T/C (second compound 0.0316 µM, first compound 0.003 µM): 2.58%; viability, T/C (second compound 0.0316 µM, first compound 0.00949 µM): 0.65%; viability, T/C (second compound 0.0316 µM, first compound 0.03 µM): 1.12%; viability, T/C (second compound 0.0316 µM, first compound 0.0949 µM): 0.45%; viability, T/C (second compound 0.0316 µM, first compound 0.3 µM): 0.74%; viability, T/C (second compound 0.1 µM, first compound 0.000949 µM): 53.2%; viability, T/C (second compound 0.1 µM, first compound 0.003 µM): 2.83%; viability, T/C (second compound 0.1 µM, first compound 0.00949 µM): 1.48%; viability, T/C (second compound 0.1 µM, first compound 0.03 µM): 5.65%; viability, T/C (second compound 0.1 µM, first compound 0.0949 µM): 0.4%; viability, T/C (second compound 0.1 µM, first compound 0.3 µM): 0.25%; viability, T/C (second compound 0.316 µM, first compound 0.000949 µM): 2.47%; viability, T/C (second compound 0.316 µM, first compound 0.003 µM): 3.26%; viability, T/C (second compound 0.316 µM, first compound 0.00949 µM): 0.59%; viability, T/C (second compound 0.316 µM, first compound 0.03 µM): 0.21%; viability, T/C (second compound 0.316 µM, first compound 0.0949 µM): 0.29%; viability, T/C (second compound 0.316 µM, first compound 0.3 µM): 0.75%; viability, T/C (second compound 1 µM, first compound 0.000949 µM): 3.27%; viability, T/C (second compound 1 µM, first compound 0.003 µM): 1.6%; viability, T/C (second compound 1 µM, first compound 0.00949 µM): 0.47%; viability, T/C (second compound 1 µM, first compound 0.03 µM): 2.61%; viability, T/C (second compound 1 µM, first compound 0.0949 µM): 0.34%; viability, T/C (second compound 1 µM, first compound 0.3 µM): 0.4%; viability, T/C (second compound 3.16 µM, first compound 0.000949 µM): 5.84%; viability, T/C (second compound 3.16 µM, first compound 0.003 µM): 2.27%; viability, T/C (second compound 3.16 µM, first compound 0.00949 µM): 1.43%; viability, T/C (second compound 3.16 µM, first compound 0.03 µM): 0.39%; viability, T/C (second compound 3.16 µM, first compound 0.0949 µM): 0.63%; viability, T/C (second compound 3.16 µM, first compound 0.3 µM): 1.73%; viability, T/C (second compound 10 µM, first compound 0.000949 µM): 3.7%; viability, T/C (second compound 10 µM, first compound 0.003 µM): 1.18%; viability, T/C (second compound 10 µM, first compound 0.00949 µM): 0.37%; viability, T/C (second compound 10 µM, first compound 0.03 µM): 1%; viability, T/C (second compound 10 µM, first compound 0.0949 µM): 0.3%; viability, T/C (second compound 10 µM, first compound 0.3 µM): 0.21%

Q: What does the source list for `O=C(c1cc(Cc2n[nH]c(=O)c3ccccc23)ccc1F)N1CCN(C(=O)C2CC2)CC1` + CN1CCN(c2cc(C(=O)Nc3cc4cc(-c5cnn(C)c5)ccc4cn3)ccn2)CC1?
A: IC50 (second compound 0.0316 µM): > 10000 nM; IC50 (second compound 0.1 µM): > 10000 nM; IC50 (second compound 0.316 µM): < 31.6 nM; IC50 (second compound 1 µM): < 31.6 nM; IC50 (second compound 3.16 µM): < 31.6 nM; IC50 (second compound 10 µM): < 31.6 nM; viability, T/C (second compound 0.0316 µM, first compound 0.0316 µM): 94.6%; viability, T/C (second compound 0.0316 µM, first compound 0.1 µM): 105%; viability, T/C (second compound 0.0316 µM, first compound 0.316 µM): 129%; viability, T/C (second compound 0.0316 µM, first compound 1 µM): 100%; viability, T/C (second compound 0.0316 µM, first compound 3.16 µM): 121%; viability, T/C (second compound 0.0316 µM, first compound 10 µM): 99.7%; viability, T/C (second compound 0.1 µM, first compound 0.0316 µM): 54.3%; viability, T/C (second compound 0.1 µM, first compound 0.1 µM): 87.4%; viability, T/C (second compound 0.1 µM, first compound 0.316 µM): 60.1%; viability, T/C (second compound 0.1 µM, first compound 1 µM): 81.2%; viability, T/C (second compound 0.1 µM, first compound 3.16 µM): 84.4%; viability, T/C (second compound 0.1 µM, first compound 10 µM): 78.9%; viability, T/C (second compound 0.316 µM, first compound 0.0316 µM): 6.03%; viability, T/C (second compound 0.316 µM, first compound 0.1 µM): 6.34%; viability, T/C (second compound 0.316 µM, first compound 0.316 µM): 4.67%; viability, T/C (second compound 0.316 µM, first compound 1 µM): 4.91%; viability, T/C (second compound 0.316 µM, first compound 3.16 µM): 5.89%; viability, T/C (second compound 0.316 µM, first compound 10 µM): 5.77%; viability, T/C (second compound 1 µM, first compound 0.0316 µM): 2.77%; viability, T/C (second compound 1 µM, first compound 0.1 µM): 1.94%; viability, T/C (second compound 1 µM, first compound 0.316 µM): 1.82%; viability, T/C (second compound 1 µM, first compound 1 µM): 2.7%; viability, T/C (second compound 1 µM, first compound 3.16 µM): 2.26%; viability, T/C (second compound 1 µM, first compound 10 µM): 1.69%; viability, T/C (second compound 3.16 µM, first compound 0.0316 µM): 7.27%; viability, T/C (second compound 3.16 µM, first compound 0.1 µM): 3.78%; viability, T/C (second compound 3.16 µM, first compound 0.316 µM): 4.39%; viability, T/C (second compound 3.16 µM, first compound 1 µM): 2.51%; viability, T/C (second compound 3.16 µM, first compound 3.16 µM): 4.57%; viability, T/C (second compound 3.16 µM, first compound 10 µM): 3.8%; viability, T/C (second compound 10 µM, first compound 0.0316 µM): 4.72%; viability, T/C (second compound 10 µM, first compound 0.1 µM): 2.86%; viability, T/C (second compound 10 µM, first compound 0.316 µM): 2.33%; viability, T/C (second compound 10 µM, first compound 1 µM): 2.8%; viability, T/C (second compound 10 µM, first compound 3.16 µM): 2.43%; viability, T/C (second compound 10 µM, first compound 10 µM): 2.26%
